# Results as given in patent US10519134B2, “Pyrazole compounds and methods of making and using same” (Lundbeck La Jolla Research Center, Inc., priority 2015, dated 2019).
# Legend:
# MAGL [1] = target: T1, MAGL (Mus musculus, UniProt O35678); assay: In vitro competitive activity-based protein profiling (mouse), MAGL gel band; assay type: biochemical; details: for IC50: mouse; for inhibition at 1 µM: read-out: MAGL % inh. 1 μM
# T1 construct: Proteomes (mouse brain membrane fraction or cell lysates); from tissue; host or cells: mouse brain membrane fraction (or cell lysates)
# T1 sequence (O35678 1-303): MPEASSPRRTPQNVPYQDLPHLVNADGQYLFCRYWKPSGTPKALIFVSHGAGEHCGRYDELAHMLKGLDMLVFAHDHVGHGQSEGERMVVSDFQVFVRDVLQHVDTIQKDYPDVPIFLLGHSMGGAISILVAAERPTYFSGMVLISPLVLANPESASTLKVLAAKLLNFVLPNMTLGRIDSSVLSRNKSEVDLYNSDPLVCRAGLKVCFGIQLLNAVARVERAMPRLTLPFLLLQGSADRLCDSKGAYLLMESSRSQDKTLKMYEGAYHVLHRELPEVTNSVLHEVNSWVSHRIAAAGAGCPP
# How it was run: (§1)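 Mouse brain membrane proteome or cell lysate (1.0 mg/mL protein) preincubated 30 min at 37 °C with varying inhibitor concentrations, then labelled 30 min at 37 °C with FP-Rh or HT-01 probe (50 μM stock). After SDS-PAGE, activity taken from fluorescent intensity of the MAGL and FAAH gel bands.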
# MAGL [2] = target: T1, MAGL; assay: Mouse brain proteomes from inhibitor treated mice (oral gavage, sacrificed 4 h after administration); assay type: in vivo; details: read-out: MAGL % inh. 5 mg/kg
# Experimental: Compounds are tested to assess their MAGL and other serine hydrolase activity using the following in vitro and in vivo assays.
# Preparation of Mouse Brain Proteomes from Inhibitor Treated Mice.
# Inhibitors were administered to wild-type C57Bl/6J by oral gavage in a vehicle of polyethylene glycol. Each animal was sacrificed 4 h following administration and brain proteomes were prepared and analyzed according to previously established methods (See Niphakis, M. J., et al. (2011) ACS Chem. Neurosci. and Long, J. Z., et al. Nat. Chem. Biol. 5:37-44)
# FAAH = target: T2, FAAH (Mus musculus, UniProt O08914); assay: In vitro competitive activity-based protein profiling (mouse), FAAH gel band; assay type: biochemical; details: for IC50: mouse; for inhibition at 1 µM: read-out: FAAH % inh. 1 μM
# T2 construct: Proteomes (mouse brain membrane fraction or cell lysates); from tissue; host or cells: mouse brain membrane fraction (or cell lysates)
# T2 sequence (O08914 1-579): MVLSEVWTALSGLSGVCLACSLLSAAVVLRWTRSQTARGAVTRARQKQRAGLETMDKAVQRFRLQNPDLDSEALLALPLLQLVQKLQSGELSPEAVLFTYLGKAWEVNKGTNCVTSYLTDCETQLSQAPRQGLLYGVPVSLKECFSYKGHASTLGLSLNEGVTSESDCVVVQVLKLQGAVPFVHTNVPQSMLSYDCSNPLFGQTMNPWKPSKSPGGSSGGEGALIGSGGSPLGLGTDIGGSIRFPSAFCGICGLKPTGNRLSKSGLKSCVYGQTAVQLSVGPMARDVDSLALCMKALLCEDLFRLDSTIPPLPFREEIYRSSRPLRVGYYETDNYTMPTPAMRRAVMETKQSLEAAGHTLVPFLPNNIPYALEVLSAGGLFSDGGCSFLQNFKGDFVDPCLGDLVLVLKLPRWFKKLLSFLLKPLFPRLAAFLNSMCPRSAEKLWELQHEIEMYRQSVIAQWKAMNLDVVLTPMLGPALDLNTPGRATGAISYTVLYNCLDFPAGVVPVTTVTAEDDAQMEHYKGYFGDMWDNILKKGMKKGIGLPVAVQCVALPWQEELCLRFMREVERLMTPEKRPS
# How it was run: as §1
IC50 (MAGL [1]),inhibition at 1 µM (MAGL [1]),inhibition at 5 mg/kg (MAGL [2]),IC50 (FAAH),inhibition at 1 µM (FAAH),Structure (SMILES)
≤ 100 nM,≥ 75%,0 to 25%,1000 to 10000 nM,0 to 25%,"CC(=O)Nc1ccn(C(=O)N2CCC3(CCCN3Cc3ccc(C(N)=O)c(C(F)(F)F)c3)CC2)n1 [Example 109, 4-((8-(3-acetamido-1H-pyrazole-1-carbonyl)-1,8-diazaspiro[4.5]decan-1-yl)methyl)-2-(trifluoromethyl)benzamide]"
≤ 100 nM,≥ 75%,0 to 25%,1000 to 10000 nM,0 to 25%,"CC(=O)Nc1ccn(C(=O)N2CCN(Cc3ccc(C(F)(F)F)cc3OCC(=O)N3CCCC3)CC2)n1 [Example 79, N-(1-(4-(2-(2-oxo-2-(pyrrolidin-1-yl)ethoxy)-4-(trifluoromethyl)benzyl)piperazine-1-carbonyl)-1H-pyrazol-3-yl)acetamide]"
≤ 100 nM,≥ 75%,≥ 75%,1000 to 10000 nM,0 to 25%,"CC(=O)Nc1ccn(C(=O)N2CCN(Cc3ccc(Cl)cc3N3CCCC3)CC2)n1 [Example 5, N-(1-(4-(4-chloro-2-(pyrrolidin-1-yl)benzyl)piperazine-1-carbonyl)-1H-pyrazol-3-yl)acetamide]"
≤ 100 nM,≥ 75%,25 to 50%,1000 to 10000 nM,0 to 25%,"CC(=O)Nc1ccn(C(=O)N2CCN(Cc3cc(Oc4cncnc4)cc(C(F)(F)F)c3)CC2)n1 [Example 74, N-(1-(4-(3-(pyrimidin-5-yloxy)-5-(trifluoromethyl)benzyl)piperazine-1-carbonyl)-1H-pyrazol-3-yl)acetamide]"
≤ 100 nM,≥ 75%,0 to 25%,1000 to 10000 nM,0 to 25%,"CCN1CCN(c2cc(C(F)(F)F)ccc2CN2CCN(C(=O)n3ccc(NC(C)=O)n3)CC2)CC1 [Example 48, N-(1-(4-(2-(4-ethylpiperazin-1-yl)-4-(trifluoromethyl)benzyl)piperazine-1-carbonyl)-1H-pyrazol-3-yl)acetamide]"
≤ 100 nM,≥ 75%,25 to 50%,1000 to 10000 nM,0 to 25%,"CC(=O)Nc1ccn(C(=O)N2CCC3(CCCN3Cc3cc(Cl)cc(N4CCCC4)c3)CC2)n1 [Example 63, N-(1-(1-(3-chloro-5-(pyrrolidin-1-yl)benzyl)-1,8-diazaspiro[4.5]decane-8-carbonyl)-1H-pyrazol-3-yl)acetamide]"
≤ 100 nM,≥ 75%,0 to 25%,1000 to 10000 nM,0 to 25%,"CC(=O)Nc1ccn(C(=O)N2CCN(Cc3ccc(Cl)cc3N3CCC4(CC3)CCN(S(C)(=O)=O)C4)CC2)n1 [Example 54, N-(1-(4-(4-chloro-2-(2-(methylsulfonyl)-2,8-diazaspiro[4.5]decan-8-yl)benzyl)piperazine-1-carbonyl)-1H-pyrazol-3-yl)acetamide]"
≤ 100 nM,≥ 75%,0 to 25%,1000 to 10000 nM,0 to 25%,"CC(=O)Nc1ccn(C(=O)N2CCC3(CCCN3Cc3cc(OC4CCS(=O)(=O)CC4)cc(C(F)(F)F)c3)CC2)n1 [Example 88, N-(1-(1-(3-((1,1-dioxidotetrahydro-2H-thiopyran-4-yl)oxy)-5-(trifluoromethyl)benzyl)-1,8-diazaspiro[4.5]decane-8-carbonyl)-1H-pyrazol-3-yl)acetamide]"

# Further lines, the compound ahead of its results:
Structure (SMILES),IC50 (MAGL [1]),inhibition at 1 µM (MAGL [1]),inhibition at 5 mg/kg (MAGL [2]),IC50 (FAAH),inhibition at 1 µM (FAAH)
"CC(=O)Nc1ccn(C(=O)N2CCC3(CCCN3Cc3ccc(C(F)(F)F)c(N4CCOCC4)c3)CC2)n1 [Example 105, N-(1-(1-(3-morpholino-4-(trifluoromethyl)benzyl)-1,8-diazaspiro[4.5]decane-8-carbonyl)-1H-pyrazol-3-yl)acetamide]",≤ 100 nM,≥ 75%,25 to 50%,1000 to 10000 nM,0 to 25%
"CC(=O)Nc1ccn(C(=O)N2CCC3(CCCN3Cc3cc(N4CCCC4)cc(C(F)(F)F)c3)CC2)n1 [Example 61, N-(1-(1-(3-(pyrrolidin-1-yl)-5-(trifluoromethyl)benzyl)-1,8-diazaspiro[4.5]decane-8-carbonyl)-1H-pyrazol-3-yl)acetamide]",≤ 100 nM,≥ 75%,0 to 25%,1000 to 10000 nM,0 to 25%
"CC(=O)Nc1ccn(C(=O)N2CCN(Cc3ccc(Cl)cc3N3CC4CCC(C3)O4)CC2)n1 [Example 51, N-(1-(4-(2-(8-oxa-3-azabicyclo[3.2.1]octan-3-yl)-4-chlorobenzyl)piperazine-1-carbonyl)-1H-pyrazol-3-yl)acetamide]",≤ 100 nM,≥ 75%,25 to 50%,1000 to 10000 nM,0 to 25%
"CC(=O)Nc1ccn(C(=O)N2CCC3(CCCN3Cc3cc(N4CC5CN(C(C)=O)CC5C4)cc(C(F)(F)F)c3)CC2)n1 (stereo not drawn) [Example 69, N-(1-(1-(3-(5-acetylhexahydropyrrolo[3,4-c]pyrrol-2(1H)-yl)-5-(trifluoromethyl)benzyl)-1,8-diazaspiro[4.5]decane-8-carbonyl)-1H-pyrazol-3-yl)acetamide]",100 to 1000 nM,≥ 75%,0 to 25%,1000 to 10000 nM,0 to 25%
"CS(=O)(=O)Nc1ccn(C(=O)N2CCN(Cc3ccc(Cl)cc3N3CCCC3)CC2)n1 [Example 127, N-(1-(4-(4-chloro-2-(pyrrolidin-1-yl)benzyl)piperazine-1-carbonyl)-1H-pyrazol-3-yl) methanesulfonamide]",≤ 100 nM,≥ 75%,≥ 75%,1000 to 10000 nM,0 to 25%
"CC(=O)Nc1ccn(C(=O)N2CCC3(CCCN3Cc3ccc(C(F)(F)F)cc3N3CCC4(CC3)CCN(S(C)(=O)=O)C4)CC2)n1 [Example 26, N-(1-(1-(2-(2-(methylsulfonyl)-2,8-diazaspiro[4.5]decan-8-yl)-4-(trifluoromethyl)benzyl)-1,8-diazaspiro[4.5]decane-8-carbonyl)-1H-pyrazol-3-yl)acetamide]",≤ 100 nM,≥ 75%,0 to 25%,1000 to 10000 nM,0 to 25%
"CS(=O)(=O)Nc1ccn(C(=O)N2CCC3(CCCN3Cc3ccc(C(F)(F)F)c(Cl)c3)CC2)n1 [Example 161, N-(1-(1-(3-chloro-4-(trifluoromethyl)benzyl)-1,8-diazaspiro[4.5]decane-8-carbonyl)-1H-pyrazol-3-yl) methanesulfonamide]",,≥ 75%,0 to 25%,,0 to 25%
"CC(=O)Nc1ccn(C(=O)N2CCC3(CCCN3Cc3cc(OCC(=O)N4CCCC4)cc(C(F)(F)F)c3)CC2)n1 [Example 90, N-(1-(1-(3-(2-oxo-2-(pyrrolidin-1-yl)ethoxy)-5-(trifluoromethyl)benzyl)-1,8-diazaspiro[4.5]decane-8-carbonyl)-1H-pyrazol-3-yl)acetamide]",≤ 100 nM,≥ 75%,0 to 25%,1000 to 10000 nM,0 to 25%
